In patent publication US20260166159A1, “KRAS G12D DEGRADATION AGENT, AND PREPARATION METHOD AND USE THEREFOR” (LEADINGTAC PHARMACEUTICAL (SHAOXING) CO., LTD., priority 2022, published 2026):

What was measured:
[1] = target: T1, Human KRAS G12D 6His-tagged (Homo sapiens, UniProt P01116, G12D); assay: KRAS-G12D/GTP binding assay (HTRF)
T1 construct: purchased PerkinElmer
Experimental: In this method, the inhibitory effects of the compounds on the binding of KRAS-G12D to GTP were assayed by a homogeneous time-resolved fluorescence (HTRF) technique using a KRAS-G12D/GTP binding assay kit (PerkinElmer).
The experimental procedures were as follows (refer to the kit instructions for detailed test methods): the compounds of the present disclosure were each firstly dissolved in DMSO at a concentration of 20 mM, and then diluted in an equal gradient with a buffer in the kit, so that the final concentrations of the test compounds in the reaction system were in a range of 0.02-5000 nM, and the final concentration of DMSO was 0.5%. 5 μL of each compound was incubated with 5 μL of 1× Human KRAS G12D 6His-tagged (PerkinElmer), 5 μL of 1×6His Eu Cryptate Antibody (PerkinElmer), and 5 μL of 1×GTP Red reagent (PerkinElmer) in a 384-well plate (Greiner) at 25° C. for 1 h. After the incubation was completed, the fluorescence intensity of each well was measured at the excitation wavelength of 337 nm and the emission wavelengths of 620 nm and 665 nm with an EnVision microplate reader (PerkinElmer) in the HTRF mode, and Ratio values were calculated using the formula: Ratio=(665 nm/620 nm)×[…]. The inhibition rates of the compounds at each concentration were calculated by comparing the fluorescence intensity ratio with that of the control group. Then non-linear curve fittings for logarithmic concentration-inhibition rate were performed using the GraphPad Prism 8 analysis software, and the IC50 values of the compounds were obtained (Table 2).

KRAS-G12D = target: T2, KRAS-G12D (Homo sapiens, UniProt P01116, G12D); assay: KRAS-G12D degradation assay (Western Blot), A-427 cells; assay type: cell-based; conditions: A427 cells, 24 h, class symbols; for Dmax: A-427
T2 construct: endogenous in cells; host or cells: A-427 (ATCC), AGS, AsPc-1, Panc 04.03
In short: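 Each KRAS G12D mutant line (A-427, AGS, AsPc-1, Panc 04.03) was seeded at 5×10^5 cells/well and treated 24 h at 37 °C with 0.03–3000 nM compound (final DMSO 0.25%). KRAS in lysates was measured by Western blot, normalized to β-actin and compared with controls, giving DC50 and Dmax from curve fits.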

[2] = system: KRAS G12D mutant human lung cancer cell A427; assay: 3D cell proliferation inhibition assay, A427; assay type: cell-based; conditions: A-427, 168 h, A427, 7 days, CTG, class symbols
Source text: (§1) The inhibitory effects of the compounds on 3D cell proliferation were investigated on KRAS G12D mutant human lung cancer cell A427, KRAS G12D mutant human gastric cancer cell AGS, KRAS G12D mutant human metastatic pancreatic cancer cell AsPc-1, KRAS G12D mutant human pancreatic cancer cell Panc 04.03, KRAS G12D mutant human pancreatic cancer cell HPAC, KRAS G12V mutant human lung squamous cell carcinoma cell SW900, and KRAS WT human gastric cancer cell MKN1. The specific procedures were as follows:
(§2) 10 μL of each compound solution diluted in a gradient was added to corresponding wells of a 96-well low-adsorption microplate (PerkinElmer), so that the final concentrations of the test compounds in the reaction system were in a range of 10000-0.026 nM. The final concentration of DMSO was 0.2%. Then 90 µL of cells were correspondingly seeded into each well to achieve a cell density of 5×10^2 cells/well (the cell density of SW900 was 5×10^1 cells/well, and the cell density of MKN1 was 1×10^3 cells/well). In addition to test wells for the test compounds, both a DMSO control well and a medium control well were set, with the DMSO control well containing DMSO and cells and the medium well containing only a medium. After the sample loading, the 96-well low-adsorption microplate was incubated in an incubator at 37° C. with 5% carbon dioxide for 7 days. After 7 days, the microplate was taken out, and 100 μL of CTG reagent (Promega) was added to each well. The plate was incubated at room temperature for 60 min and read on a microplate reader EnVision by the chemiluminescence program. The inhibition rates of the compounds at each concentration were calculated using the formula for the percentage inhibition of cell proliferation: inhibition rate %=(mean value of DMSO control group−single concentration reading value of compound)/(mean value of DMSO control group−mean value of medium control group)×100. Then non-linear curve fittings for logarithmic concentration-inhibition rate were performed by GraphPad Prism 8, and the IC50 values of the compounds were obtained (Table 5).

[3] = system: KRAS G12D mutant human gastric cancer cell AGS; assay: 3D cell proliferation inhibition assay, AGS; assay type: cell-based; conditions: 168 h, 7 days, CTG, class symbols
In short: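 CellTiter-Glo luminescence, read after 60 min at room temperature, measured growth of 3D cultures (5×10^2 cells/well) exposed for 7 days to compounds at final concentrations of 10000–0.026 nM in 0.2% DMSO. Percent inhibition, scaled between DMSO-treated cells and medium alone, was fitted against log concentration for IC50.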

[4] = system: KRAS G12D mutant human metastatic pancreatic cancer cell AsPc-1; assay: 3D cell proliferation inhibition assay, AsPc-1; assay type: cell-based; conditions: ASPC1, 168 h, AsPc-1, 7 days, CTG, numeric values
Source text: as §1, §2

[5] = system: KRAS G12D mutant human pancreatic cancer cell HPAC; assay: 3D cell proliferation inhibition assay, HPAC; assay type: cell-based; conditions: 168 h, 7 days, CTG
Source text: as §1, §2

T1 sequence (P01116 1-188 isoform P01116-2 G12D): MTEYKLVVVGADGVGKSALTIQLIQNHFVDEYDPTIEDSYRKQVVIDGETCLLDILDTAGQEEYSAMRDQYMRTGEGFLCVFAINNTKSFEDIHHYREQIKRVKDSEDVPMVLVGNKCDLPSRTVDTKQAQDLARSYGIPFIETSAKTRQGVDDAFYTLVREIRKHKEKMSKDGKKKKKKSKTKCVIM
T2 sequence (P01116 1-188 isoform P01116-2 G12D): as above

Cc1ccc(C(=O)N2CCC3(CCC(CN4CCN(CC5(COc6nc(N7CC8CCC(C7)N8)c7cnc(-c8cccc9cccc(Cl)c89)c(F)c7n6)CC5)CC4)CC3)CC2)cc1N1CCC(=O)NC1=O [Example 45, 1-(5-(9-((4-((1-(((4-(3,8-diazabicyclo[3.2.1]octan-3-yl)-7-(8-chloronaphthalen-1-yl)-8-fluoropyrido[4,3-d]pyrimidin-2-yl)oxy)methyl)cyclopropyl)methyl)piperazin-1-yl)methyl)-3-azaspiro[5.5]undecane-3-carbonyl)-2-methylphenyl)dihydropyrimidine-2,4(1H,3H)-dione]
IC50 ([1]; class symbols): ≤ 50 nM
DC50 (KRAS-G12D): 1000 to 10000 nM
Dmax (KRAS-G12D): < 30%
IC50 [2]: 50 to 100 nM
IC50 [3]: 50 to 100 nM

C#Cc1c(F)ccc2cc(O)cc(-c3ncc4c(N5CC6CCC(C5)N6)nc(OCC5(CN6CC(CN7CCC8(CC7)CCN(C(=O)c7ccc(OC)c(N9CCC(=O)NC9=O)c7)CC8)C6)CC5)nc4c3F)c12 [Example 40, 1-(5-(9-((1-((1-(((4-(3,8-diazabicyclo[3.2.1]octan-3-yl)-7-(8-ethynyl-7-fluoro-3-hydroxynaphthalen-1-yl)-8-fluoropyrido[4,3-d]pyrimidin-2-yl)oxy)methyl)cyclopropyl)methyl)azetidin-3-yl)methyl)-3,9-diazaspiro[5.5]undecane-3-carbonyl)-2-methoxyphenyl)dihydropyrimidine-2,4(1H,3H)-dione]
IC50 ([1]; class symbols): ≤ 50 nM
DC50 (KRAS-G12D): 1000 to 10000 nM
Dmax (KRAS-G12D): 30 to 50%
IC50 [2]: 1000 to 10000 nM
IC50 [3]: 100 to 500 nM

C#Cc1c(F)ccc2cc(O)cc(-c3ncc4c(N5CC6CCC(C5)N6)nc(OCC5(CN6CC7CC6CN7CC6CCC7(CC6)CCN(C(=O)c6ccc(Cl)c(N8CCC(=O)NC8=O)c6)CC7)CC5)nc4c3F)c12 (stereo not drawn) [Example 59, 1-(5-(9-((5-((1-(((4-(3,8-diazabicyclo[3.2.1]octan-3-yl)-7-(8-ethynyl-7-fluoro-3-hydroxynaphthalen-1-yl)-8-fluoropyrido[4,3-d]pyrimidin-2-yl)oxy)methyl)cyclopropyl)methyl)-2,5-diazabicyclo[2.2.1]heptan-2-yl)methyl)-3-azaspiro[5.5]undecane-3-carbonyl)-2-chlorophenyl)dihydropyrimidine-2,4(1H,3H)-dione]
IC50 ([1]; class symbols): ≤ 50 nM
DC50 (KRAS-G12D): 1000 to 10000 nM
Dmax (KRAS-G12D): < 30%
IC50 [2]: 100 to 500 nM
IC50 [3]: ≤ 50 nM

C#Cc1c(F)ccc2cc(O)cc(-c3ncc4c(N5CC6CCC(C5)N6)nc(OCC56CC(CN7CCN(CCC8CCC9(CC8)CCN(C(=O)c8ccc(Cl)c(N%10CCC(=O)NC%10=O)c8)CC9)CC7)(C5)C6)nc4c3F)c12 [Example 56, 1-(5-(9-(2-(4-((3-(((4-(3,8-diazabicyclo[3.2.1]octan-3-yl)-7-(8-ethynyl-7-fluoro-3-hydroxynaphthalen-1-yl)-8-fluoropyrido[4,3-d]pyrimidin-2-yl)oxy)methyl)bicyclo[1.1.1]pentan-1-yl)methyl)piperazin-1-yl)ethyl)-3-azaspiro[5.5]undecane-3-carbonyl)-2-chlorophenyl)dihydropyrimidine-2,4(1H,3H)-dione]
IC50 ([1]; class symbols): 50 to 100 nM
DC50 (KRAS-G12D): ≤ 50 nM
Dmax (KRAS-G12D): 50 to 80%
IC50 [2]: 50 to 100 nM
IC50 [3]: ≤ 50 nM

C#Cc1c(F)ccc2cc(O)cc(-c3ncc4c(N5CC6CCC(C5)N6)nc(OCC5(CN6CCC(CN7CCC8(CC7)CCN(C(=O)c7ccc(OC)c(N9CCC(=O)NC9=O)c7)CC8)CC6)CC5)nc4c3F)c12 [Example 38, 1-(5-(9-((1-((1-(((4-(3,8-diazabicyclo[3.2.1]octan-3-yl)-7-(8-ethynyl-7-fluoro-3-hydroxynaphthalen-1-yl)-8-fluoropyrido[4,3-d]pyrimidin-2-yl)oxy)methyl)cyclopropyl)methyl)piperidin-4-yl)methyl)-3,9-diazaspiro[5.5]undecane-3-carbonyl)-2-methoxyphenyl)dihydropyrimidine-2,4(1H,3H)-dione]
IC50 ([1]; class symbols): ≤ 50 nM
DC50 (KRAS-G12D): ≤ 50 nM
Dmax (KRAS-G12D): 80 to 100%
IC50 [2]: ≤ 50 nM
IC50 [3]: ≤ 50 nM

C#Cc1c(F)ccc2cc(O)cc(-c3ncc4c(N5CC6CCC(C5)N6)nc(OCCN5CCN(CCC6CCC7(CC6)CCN(C(=O)c6ccc(Cl)c(N8CCC(=O)NC8=O)c6)CC7)CC5)nc4c3F)c12 [Example 61, 1-(5-(9-(2-(4-(2-((4-(3,8-diazabicyclo[3.2.1]octan-3-yl)-7-(8-ethynyl-7-fluoro-3-hydroxynaphthalen-1-yl)-8-fluoropyrido[4,3-d]pyrimidin-2-yl)oxy)ethyl)piperazin-1-yl)ethyl)-3-azaspiro[5.5]undecane-3-carbonyl)-2-chlorophenyl)dihydropyrimidine-2,4(1H,3H)-dione]
IC50 ([1]; numeric values): 21.1 nM
IC50 [2]: 100 to 500 nM
IC50 [3]: ≤ 50 nM

C#Cc1c(F)ccc2cc(O)cc(-c3ncc4c(N5CC6CCC(C5)N6)nc(OCC(CN5CCN(CC6CCC7(CC6)CCN(C(=O)c6ccc(OC)c(N8CCC(=O)NC8=O)c6)CC7)CC5)OC)nc4c3F)c12 (stereo not drawn) [Example 105, 1-(5-(9-((4-(3-((4-(3,8-diazabicyclo[3.2.1]octan-3-yl)-7-(8-ethynyl-7-fluoro-3-hydroxynaphthalen-1-yl)-8-fluoropyrido[4,3-d]pyrimidin-2-yl)oxy)-2-methoxypropyl)piperazin-1-yl)methyl)-3-azaspiro[5.5]undecane-3-carbonyl)-2-methoxyphenyl)dihydropyrimidine-2,4(1H,3H)-dione]
IC50 [4]: 93.5 nM
IC50 [5]: 12.7 nM
